Experimental data published in US20250313528A1, “NOVEL COMPOUND AND PHARMACEUTICAL COMPOSITION FOR PREVENTING OR TREATING PULMONARY FIBROSIS COMPRISING SAME AS ACTIVE INGREDIENT” (GIL MEDICAL CENTER, priority 2022, published 2025).

Columns and labels:
[1] = tested on: FN, COL1A1, α-SMA, TGF-β, and CTGF; test: qRT-PCR of fibrosis-related genes in lung tissue, BLM model; format: in vivo, C57BL/6N mice; settings: BLM mice, compared to the BLM group
Experimental: (§1) Specifically, 7-week-old C57BL/6N mice were exposed to BLM (3-5 units/kg) via the airway. The compounds were administered orally at doses of 200 μg/kg and 500 μg/kg for Compound 1, and 100 μg/kg and 200 μg/kg for Compound 2, three times a week for three weeks starting the day after BLM exposure. Body weight gain was periodically measured during the experimental period, and lung weight was measured at the end of the experiment.
Specifically, to extract RNA from lung tissue, approximately 100 mg of pulverized lung tissue was dispensed into 1.5 mL tubes, and total RNA was extracted using TRIzol reagent (TakaRa Bio Inc., Japan). After adding 1 mL of TRIzol reagent to denature the tissue, the samples were transferred to 1.5 ml tubes, and 200 μl of chloroform was added, followed by vortexing for 20 seconds to mix thoroughly. After reacting at room temperature for 15 minutes, the samples were centrifuged at 14,000 rpm for 20 minutes to obtain the supernatant. An equal volume of isopropyl alcohol was added, inverted, and allowed to stand at room temperature for 10 minutes. The samples were centrifuged at 14,000 rpm for 15 minutes to obtain RNA pellets, washed with 70% ethanol at 14,000 rpm for 5 minutes, and dried for 5 minutes. […] The RNA concentration and purity were measured at OD 260/280 nm using a Nanodrop.

[2] = tested on: MRC-5 cells; test: Microscopic examination of cell morphology and proliferation, TGF-β1-induced MRC-5; format: cell-based, human; settings: MRC-5, TGF-β1-induced, microscope, FIG. 4a
Experimental: The effects of the two candidate compounds of sulforaphane prodrugs on cytotoxicity and morphological changes in normal lung fibroblast MRC-5 cells and diseased lung fibroblast DHLF-IPF cells were examined. The diseased lung fibroblast DHLF-IPF cell line was purchased from Lonza and cultured in FGM™-2 Fibroblast Growth Medium-2 BulletKit™ at 37° C. in a 5% CO2 incubator.
Additionally, the changes in cell morphology of two lung fibroblasts induced by TGF-β1 according to the treatments with Compound 1 and Compound 2 were examined with the naked eye through a microscope.

[3] = tested on: fibronectin and α-SMA; test: Western blotting of fibrosis-related proteins in TGF-β1-induced MRC-5 cells; format: cell-based, human; settings: for expression of fibronectin and α-SMA by concentration: MRC-5 + TGF-β1, Compound 1 at 5, 10, 20 μM, Compound 2 at 2.5, 5, 10 μM, FIG. 3; for expression levels of fibronectin and α-SMA protein: MRC-5, TGF-β1 1 ng/ml, 10 μM, FIG. 4b; for expression levels of fibronectin and α-SMA: MRC-5 induced by TGF-β1, screen of sulforaphane compounds, FIG. 2
Experimental: Since the overexpression of extracellular matrix components such as fibronectin and α-SMA serves as an indicator of fibrotic changes in tissues, MRC-5 cells induced to undergo fibrosis by TGF-β1 were treated with each compound at different concentrations to compare the expression levels of fibronectin and α-SMA.
(§2) Specifically, to extract fibronectin and α-SMA proteins, the cells were washed once with cold PBS and then RIPA buffer (150 mM NaCl, 0.5% Triton X-100, 50 mM Tris-HCl, pH 7.4, 25 mM NaF, 20 mM EGTA), which was added with a protease inhibitor cocktail, was added thereto to lyse the cells. Then, the proteins were quantified using a BCA protein assay kit. All protein samples were subjected to electrophoresis at 10 μg on 8% to 10% PAGE gels and then transferred to 0.2 μm PVDF membranes (EMD Millipore, MA, USA). The membranes to which the protein was transferred were blocked with 5% BSA or 5% skim milk for 1 hour, and then primary antibodies were added thereto and incubated overnight at 4° C. The following day, the membranes were washed three times with PBST, and then HRP-conjugated secondary antibodies were added and reacted at room temperature for 1 hour. The PVDF membranes prepared through such procedures were smeared with ECL (Luminata™ Crescendo, EMD Millipore) and exposed to a fluorescence reader to confirm the level of protein expression.
The specific experimental methods are the same as in Example 2, and sulforaphane was treated at a concentration of 20 μM, Compound 1 at 5 μM, 10 μM, and 20 μM, and Compound 2 at 2.5 μM, 5 μM, and 10 μM, respectively.
(§3) To compare the changes in fibrosis-related protein expression by treating normal MRC-5 and diseased DHLF-IPF cell lines induced with pulmonary fibrosis by TGF-β1 with SFN and the two candidate compounds, Western blotting was performed.
(§4) The specific experimental methods are the same as in Example 2. TGF-β1 was treated at 1 ng/ml to induce fibrosis, and sulforaphane and the two compounds each were treated at a concentration of 10 μM.

[4] = tested on: fibronectin and α-SMA; test: Western blotting of fibrosis-related proteins in TGF-β1-induced DHLF-IPF cells; format: cell-based, human; settings: TGF-β1 1 ng/ml, 10 μM, FIG. 4b
Experimental: as §2, §3, §4

[5] = tested on: bleomycin (BLM)-induced pulmonary fibrosis animal models; test: H&E and Masson-trichrome histological evaluation of lung, BLM model; format: in vivo, C57BL/6N mice; settings: BLM mice; for degree of fibrosis in the lung tissue: compared to the BLM group; for inflammation in lung tissue (H&E): both doses (Compound 1 200 and 500 μg/kg; Compound 2 100 and 200 μg/kg)
Experimental: as §1
To observe changes in lung tissue, Hematoxylin and Eosin (H&E) staining and Masson-trichrome staining were performed on lung tissue samples to assess the degree of inflammation and fibrosis.
Specifically, the excised lung tissue was embedded in paraffin and sectioned into 4 μm slices using a microtome. These tissue sections were used for H&E, MT stain, and Immunohistochemistry (IHC). Each experiment was conducted by deparaffinizing and rehydrating the sections using xylene and ethanol. For IHC, the LSAB2 system HRP (DAKO, Carpinteria, CA, USA) kit was used. Antibody retrieval was performed in 0.1 mM citric acid (pH 6), and the experiment was conducted according to the provided instructions. The sections were blocked with blocking buffer at room temperature for 1 hour, then incubated overnight at 4° C. with primary antibodies (fibronectin, collagen 1, α-SMA). After blocking with secondary antibodies at room temperature for 1 hour, the Streptavidin-HRP system was used for 10 minutes, followed by exposure to DAB solution, hematoxylin staining, dehydration, clearing, and mounting with Canada balsam. The stained slides were examined under an optical microscope (BK51, Olympus, Japan). The staining results were quantified using the Image J program.

[6] = tested on: DHLF-IPF cells; test: Wound healing assay, DHLF-IPF; format: cell-based, human; settings: TGF-β1 treatment, 24 hours, FIG. 6
Experimental: The effects of Compound 1 and Compound 2, selected in Example 3, on cell migration (wound healing) in MRC-5 and DHLF-IPF cells were examined.
Specifically, cells (1×10^5 cells/well) were seeded in a 60 mm dish to achieve approximately 90% confluency and cultured for 24 hours. Subsequently, a straight line was scratched on the bottom with a 200 μL pipette tip, and the detached cells were removed by washing once with Dulbecco's Phosphate-Buffered Saline (DPBS). The wound was photographed under a microscope, and treatments with TGF-β1 alone, TGF-β1+SFN, TGF-β1+GSF-016, and TGF-1+GSF-018 were applied and cultured for approximately 24 hours, after which the wound was re-photographed. The images taken at 24 hours of culture were analyzed using the Image J (Fiji package) software to measure the distance between cells, and the relative migration was expressed as a percentage (%) compared to the control group.

| Structure (SMILES) | expression of five genes (FN, COL1A1, α-SMA, TGF-β, and CTGF) in lung tissue [1] | cell morphology [2] | inhibition of cell proliferation compared to sulforaphane-treated group [2] | expression of fibronectin and α-SMA by concentration [3] | expression levels of fibronectin and α-SMA protein [3] | expression levels of fibronectin and α-SMA [3] | expression levels of fibronectin and α-SMA protein [4] | degree of fibrosis in the lung tissue ([5]; 200 μg/kg) | degree of fibrosis in the lung tissue ([5]; 500 μg/kg) | inflammation in lung tissue (H&E) [5] | cell migration (wound healing) [6] | degree of fibrosis in the lung tissue ([5]; 100 μg/kg) |
| --- | --- | --- | --- | --- | --- | --- | --- | --- | --- | --- | --- | --- |
| CCOC(=O)C(CSC(=S)NCCCC[S+](C)[O-])NC(C)=O (stereo not shown) [Compound 1] | significant reduction | thin and elongated shape, which is similar to that of the control group | inhibition of cell proliferation was more significant | decreased in a concentration-dependent manner | significantly reducing the expression levels compared to sulforaphane | significantly decreased | significantly reducing the expression levels compared to sulforaphane | significantly reduced | significantly reduced | significant reduction in inflammation regardless of concentration | significantly inhibited in a dose-dependent manner |  |
| C=CCOC(=O)C(CSC(=S)NCCCC[S+](C)[O-])NC(C)=O (stereo not shown) [Compound 2] | significant reduction | thin and elongated shape, which is similar to that of the control group | inhibition of cell proliferation was more significant | decreased in a concentration-dependent manner | significantly reducing the expression levels compared to sulforaphane | significantly decreased | significantly reducing the expression levels compared to sulforaphane | significantly reduced |  | significant reduction in inflammation at both concentrations | significantly inhibited in a dose-dependent manner | significantly reduced |
